Values joined by “and” are separate entries in the source; they are usually repeats but may differ in a detail not shown here. Identical values can stand only once.
The compounds below were run on PC-3M-Pro4luc+ cells (assay: Formation of de novo skeletal metastases in mice, whole body bioluminescence imaging). Conditions: treatment of mice.
Assay type: in vivo
Text: Treatment of mice with 4-[1-aminomethylidene]-2-benzothiazol-2-yl-5-phenyl-2,4-dihydro-pyrazol-3-one decreased the number of bone lesions and metastatic tumor burden. Cancer cells and tumor burden were monitored by whole body bioluminescence imaging. […] Such in vivo testing may lead to further selection, preference, deselection or disfavor of individual compounds for further programs for development of a compound for use in a prescription medicine. A particular compound of interest for such advanced testing is, 4-(aminomethylene)-2-(2-benzothiazolyl)-2,4-dihydro-5-(3-chlorophenyl)-3H-pyrazol-3-one.

`NC=C1C(=O)N(c2nc3ccccc3s2)N=C1c1ccccc1` [Example 2, 4-[1-Aminomethylidene]-2-benzothiazol-2-yl-5-phenyl-2,4-dihydro-pyrazol-3-one] was tested, and the metastatic tumor burden was “decreased”.

In the case of `NC=C1C(=O)N(c2nc3ccccc3s2)N=C1c1ccccc1` [Example 2, 4-[1-Aminomethylidene]-2-benzothiazol-2-yl-5-phenyl-2,4-dihydro-pyrazol-3-one], the “number of bone lesions” value is reported as “decreased”.

The compounds below were run on PC3 cells (assay: Cell invasion assay (BD Biocoat Matrigel Invasion chambers, CellTiter-GLO readout)). Conditions: Homo sapiens, PC-3, PC3 cells incubated with compound (10 μM) for 4 days prior to assay; 48 hours invasion; versus DMSO treated cells; several values = repeated assays.
Assay type: cell-based, human
Text: For determining the effectiveness of the compounds according to the invention, a model assay based on the migration of cells in a migration chamber was employed. This model is accepted in the art as providing representative data on the ability of cells to metastasize.
The PC-3 prostate cancer cell line (ATCC# CRL-1435) was maintained in RPMI-1640 medium (Invitrogen, 31870), supplemented with 10% Fetal Bovine Serum (Sigma, F7524), L-Glutamine (Invitrogen 25030-024). Cells were split once a week at a 1:10 ratio.
For cell invasion assays, PC3 cells were incubated in the presence of a compound according to the invention (10 μM) for 4 days, prior to the invasion assay. Forty thousand cells were seeded into BD Biocoat Matrigel Invasion chambers (8 micron; BD 354480) in serum-free medium. The invasion chamber was placed in a 24-well containing medium with 10% fetal calf serum as chemo-attractant. As a control, the same amount of cells was seeded in 24-well culture plates. After 48 hours incubation, cells in the invasion chamber were removed by aspiration and cleaning the inner compartment with a cotton swab. The invasion chamber was then put into CellTiter-GLO (CTG, Promega-G7571) cell viability reagent, incubated for 15 minutes, and then analyzed on a Victor3 luminometer. Cell invasion was calculated as the CTG activity on the lower part of the membrane divided by the CTG activity of the cells grown in a 24 well plate. Inhibition of cell invasion by a specific compound was estimated by comparing the amount of cell invasion of compound-treated cells versus DMSO treated cells.

Going from `N/C=C1/C(=O)N(c2nc3ccccc3s2)N=C1c1ccccc1` to `N/C=C1/C(=O)N(c2nc3ccccc3s2)N=C1c1cccc(Cl)c1`, the inhibition at 10 µM rises from 52% to 91%.

Going from `COc1ccc(CN/C=C2/C(=O)N(c3nc4ccccc4s3)N=C2c2ccccc2)cc1` to `COc1ccc2nc(N3N=C(c4ccccc4)/C(=C\N)C3=O)sc2c1`, the inhibition at 10 µM rises from 35% to 70%.

First: N/C=C1/C(=O)N(c2nc3ccc(Cl)cc3s2)N=C1c1ccccc1
Second: N/C=C1/C(=O)N(c2nc3ccccc3s2)N=C1c1cccc(Br)c1
The inhibition at 10 µM of the first is higher: 89% for the first, 87% for the second.

Going from `CC1=NN(c2nc3ccccc3s2)C(=O)/C1=C/N1CCCCC1` to `CN/C=C1/C(=O)N(c2nc3ccccc3s2)N=C1c1cccs1`, the inhibition at 10 µM falls from 88% to 75%.

Going from `N/C=C1/C(=O)N(c2nc3ccccc3s2)N=C1c1cccc(I)c1` to `N/C=C1/C(=O)N(c2nc3ccccc3s2)N=C1c1cccc(C(F)(F)F)c1` [drawing 33], the inhibition at 10 µM rises from 86% to 91%.

First: N/C=C1/C(=O)N(c2nc3ccccc3s2)N=C1c1cc2ccccc2s1
Second: N/C=C1/C(=O)N(c2nc3ccccc3s2)N=C1c1ccc(Br)s1
The inhibition at 10 µM of the first is higher: 76% for the first, 57% for the second.

Going from `N/C=C1/C(=O)N(c2nc3ccc([N+](=O)[O-])cc3s2)N=C1c1cccc(C(F)(F)F)c1` to `Cc1ccc2nc(N3N=C(c4cccc(C(F)(F)F)c4)/C(=C\N)C3=O)sc2c1`, the inhibition at 10 µM falls from 73% to 67%.

Compared with `Cc1ccc(C2=NN(c3nc4ccccc4s3)C(=O)/C2=C/N)cc1Br`, `C/C(NCc1ccc(Cl)c(Cl)c1)=C1\C(=O)N(c2nc3ccccc3s2)N=C1C(F)(F)F` is lower in inhibition at 10 µM: 57% for the first, 56% for the second.

Same assay, conditions: PC3 cells incubated with compound (10 μM) for 4 days prior to assay; 48 hours invasion; versus DMSO treated cells; several values = repeated assays; 10 µM

With `N/C=C1/C(=O)N(c2nc3ccccc3s2)N=C1c1ccccc1` the “Results % inhibition of invasion in invasion assays” value (“Results % inhibition of invasion” for short) was 49% and 45%.
`N/C=C1/C(=O)N(c2nc3ccccc3s2)N=C1c1cccc(C(F)(F)F)c1` [drawing 36] was tested, and the “Results % inhibition of invasion” value was 89% and 82% and 78%.

In the case of `N/C=C1/C(=O)N(c2nc3ccccc3s2)N=C1c1cccc(Br)c1`, the “Results % inhibition of invasion” value is reported as 76%.

Source: patent US10071987B2, “Aminomethylene pyrazolones with therapeutic activity” (Compound Handling B.V., priority 2012, dated 2018)
